Results on 1 substance are retold here after patent US10544185B2 (Suzhou Zelgen Biopharmaceuticals Co., Ltd., priority 2015, dated 2020).

This assay deals with T1, farnesoid X receptor (FXR) (Homo sapiens, UniProt Q96RI1).
T1 sequence (Q96RI1 1-486): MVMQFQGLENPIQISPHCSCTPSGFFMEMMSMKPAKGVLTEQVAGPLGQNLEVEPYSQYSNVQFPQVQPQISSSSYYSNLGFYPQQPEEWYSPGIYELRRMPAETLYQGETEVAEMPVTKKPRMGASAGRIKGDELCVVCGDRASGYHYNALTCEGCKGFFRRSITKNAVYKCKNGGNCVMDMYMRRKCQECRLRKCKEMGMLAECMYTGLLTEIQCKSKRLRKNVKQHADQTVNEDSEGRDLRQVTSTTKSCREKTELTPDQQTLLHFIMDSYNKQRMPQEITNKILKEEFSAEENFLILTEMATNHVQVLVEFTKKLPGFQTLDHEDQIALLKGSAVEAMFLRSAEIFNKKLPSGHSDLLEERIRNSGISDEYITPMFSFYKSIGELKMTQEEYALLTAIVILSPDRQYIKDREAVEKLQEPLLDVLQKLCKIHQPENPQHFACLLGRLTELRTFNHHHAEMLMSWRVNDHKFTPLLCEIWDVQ
As to the kind of experiment: Recruitment Coactivator Assay (AlphaScreen) for FXR activation. The settings on record: read-out: activating activity (EC50) for FXR. Format: biochemical. As to the method: The farnesoid X receptor (FXR) activation of the compounds of the present invention is determined by Recruitment Coactivator Assay, i.e. AlphaScreen. Specific in vitro pharmacodynamic evaluation experimental program has referred to the literature J Pharmacol Exp Ther 350:56-68, July 2014.
(In general: Alpha assays give light when donor and acceptor beads are brought close together.)

For “3α, 7[…]-Dihydroxy-6α-(Ethyl-d4)-5β-Cholan-24-Acid [Example 7]”, the EC50 was < 200 nM.

By EC50 is commonly meant the concentration needed to bring the measured effect to its halfway point.
